The values below are quoted from earlier work in patent US20030109670A1, “Cone snail peptides” (University of Utah Research Foundation, priority 2001, published 2003).

Ends that are not written are not given here.

The conditions of series [1]: in vivo.
The conditions of series [2]: in vivo. This is another data set of the same source.
The conditions of series [3]: IBS patients.

As to `CSCC[C@@H]1NC(=O)[C@H](CC(C)C)NC(=O)[C@H](CCCNC(=N)N)NC(=O)[C@H](CO)NC(=O)[C@@H]2CSSC[C@@H]3NC(=O)[C@H](CO)NC(=O)CNC(=O)[C@H]([C@@H](C)O)NC(=O)[C@H](CSSC[C@H](N)C(=O)N[C@@H](CCCCN)C(=O)NCC(=O)N[C@@H](CCCCN)C(=O)NCC(=O)N[C@@H](C)C(=O)N[C@@H](CCCCN)C(=O)N2)NC(=O)[C@H](CSSC[C@@H](C(N)=O)NC(=O)[C@H](CCCCN)NC(=O)CNC(=O)[C@H](CO)NC(=O)[C@H](CCCNC(=N)N)NC3=O)NC(=O)[C@H](CC(=O)O)NC(=O)[C@H](Cc2ccc(O)cc2)NC1=O` [ω-Conotoxin MVIIA], in series [1], the “potency relative to morphine” value is reported as “approximately 1000 times” and the “tolerance or addictive properties” value was “does not produce the tolerance or addictive properties of opiates”. “Contulakin-G: 16 amino acid O-linked glycopeptide from Conus geographus, agonist of neurotensin receptors (QSEEGGSNATKKPYIL; also: O-linked glycan, site not given here; UniProt Q9XYR5 51-66, looked up)”: the “potency in inhibiting pain relative to neurotensin” value in series [2] was “significantly more potent than neurotensin”.

For the molecule `Cc1[nH]cnc1CN1CCc2c(c3ccccc3n2C)C1=O` [Alosteron], the “perception of colonic distension and gut compliance” value in series [3] was “active in modifying the perception of colonic distension and gut compliance”. In addition, in series [3] (phase III compound), the “abdominal pain, colonic transit, colon compliance” value was “reduce abdominal pain, slow colonic transit and increase colon compliance”.
